Reference: article PMC5218480 (PLoS ONE, 2017)

System: MV-4-11 cells
Assay: Gene expression microarray analysis (Affymetrix PrimeView) and GSEA
Assay type: cell-based, human
Parameters: RFU PODN (11730768_x_at) / Fold change /veh PODN (11730768_x_at) / RFU LINC00158 (11744669_a_at) / Fold change /veh LINC00158 (11744669_a_at) / RFU DUSP10 (11751237_a_at) / Fold change /veh DUSP10 (11751237_a_at) / RFU ID3 (11757404_x_at) / Fold change /veh ID3 (11757404_x_at) / RFU PLEKHG5 (11737974_s_at) / Fold change /veh PLEKHG5 (11737974_s_at) / RFU LRRC4B (11730491_at) / Fold change /veh LRRC4B (11730491_at) / RFU GIMAP4 (11747438_a_at) / Fold change /veh GIMAP4 (11747438_a_at) / RFU KRT8 (11758183_x_at) / Fold change /veh KRT8 (11758183_x_at) / RFU CNN1 (11734310_a_at) / Fold change /veh CNN1 (11734310_a_at) / RFU VPS37D (11726825_at) / Fold change /veh VPS37D (11726825_at) / RFU C10orf10 (11716522_x_at) / Fold change /veh C10orf10 (11716522_x_at) / RFU KIR2DL2 /// KIR2DL4 /// KIR2DL5A /// KIR2DL5B /// KIR2DS1 /// KIR2DS2 /// KIR2DS3 /// KIR2DS4 /// KIR3DL3 /// KIR3DL3 /// KIR3DS1 (11738374_at) / Fold change /veh KIR2DL2 /// KIR2DL4 /// KIR2DL5A /// KIR2DL5B /// KIR2DS1 /// KIR2DS2 /// KIR2DS3 /// KIR2DS4 /// KIR3DL3 /// KIR3DL3 /// KIR3DS1 (11738374_at) / RFU C1QL1 (11718748_at) / Fold change /veh C1QL1 (11718748_at) / RFU TMPRSS4 (11747572_a_at) / Fold change /veh TMPRSS4 (11747572_a_at) / RFU HAMP (11756126_x_at) / Fold change /veh HAMP (11756126_x_at) / RFU RNFT2 (11725882_a_at) / Fold change /veh RNFT2 (11725882_a_at) / RFU NR4A2 (11747474_a_at) / Fold change /veh NR4A2 (11747474_a_at) / RFU ABCC12 (11746883_a_at) / Fold change /veh ABCC12 (11746883_a_at) / RFU TMEM136 (11760407_x_at) / Fold change /veh TMEM136 (11760407_x_at) / RFU CLDN22 /// WWC2 (11732394_at) / Fold change /veh CLDN22 /// WWC2 (11732394_at) / RFU HLA-DPB1 (11760878_x_at) / Fold change /veh HLA-DPB1 (11760878_x_at) / RFU SPINT1 (11716480_a_at) / Fold change /veh SPINT1 (11716480_a_at) / RFU GAP43 (11754022_s_at) / Fold change /veh GAP43 (11754022_s_at) / RFU A4GNT (11735810_at) / Fold change /veh A4GNT (11735810_at) / RFU PRB3 (11715151_x_at) / Fold change /veh PRB3 (11715151_x_at) / RFU TUBB4B (11761932_at) / Fold change /veh TUBB4B (11761932_at) / RFU CAPN14 (11732068_a_at) / Fold change /veh CAPN14 (11732068_a_at) / RFU TMCC2 (11721928_a_at) / Fold change /veh TMCC2 (11721928_a_at) / RFU IRGQ (11745062_a_at) / Fold change /veh IRGQ (11745062_a_at) / RFU FAM174B (11720279_a_at) / Fold change /veh FAM174B (11720279_a_at) / RFU TMPRSS4 (11748680_a_at) / Fold change /veh TMPRSS4 (11748680_a_at) / RFU FAM212B (11763350_a_at) / Fold change /veh FAM212B (11763350_a_at) / RFU PLEKHG5 (11743358_a_at) / Fold change /veh PLEKHG5 (11743358_a_at) / RFU ZSCAN30 (11745921_a_at) / Fold change /veh ZSCAN30 (11745921_a_at) / RFU CMKLR1 (11741424_a_at) / Fold change /veh CMKLR1 (11741424_a_at) / RFU LOC101060620 /// MAPK8IP1 (11723275_at) / Fold change /veh LOC101060620 /// MAPK8IP1 (11723275_at) / RFU SPTSSB (11747773_x_at) / Fold change /veh SPTSSB (11747773_x_at) / RFU PRSS12 (11739890_at) / Fold change /veh PRSS12 (11739890_at) / RFU BIN1 (11741810_x_at) / Fold change /veh BIN1 (11741810_x_at) / RFU WNT11 (11732464_a_at) / Fold change /veh WNT11 (11732464_a_at) / RFU C10orf10 (11716521_a_at) / Fold change /veh C10orf10 (11716521_a_at) / RFU C5orf56 (11738089_at) / Fold change /veh C5orf56 (11738089_at) / RFU CYB561 (11721691_x_at) / Fold change /veh CYB561 (11721691_x_at) / RFU ANKRD19P (11752326_a_at) / Fold change /veh ANKRD19P (11752326_a_at) / RFU OR2T12 /// OR2T33 /// OR2T8 (11738714_s_at) / Fold change /veh OR2T12 /// OR2T33 /// OR2T8 (11738714_s_at) / RFU VCAN (11748164_a_at) / Fold change /veh VCAN (11748164_a_at) / RFU JSRP1 (11732532_at) / Fold change /veh JSRP1 (11732532_at) / RFU KRTAP10-11 (11738290_x_at) / Fold change /veh KRTAP10-11 (11738290_x_at) / RFU MYO3A (11730013_a_at) / Fold change /veh MYO3A (11730013_a_at) / RFU EBF3 (11725865_a_at) / Fold change /veh EBF3 (11725865_a_at) / RFU CAMK2N1 (11719241_x_at) / Fold change /veh CAMK2N1 (11719241_x_at) / RFU C5orf56 (11738088_a_at) / Fold change /veh C5orf56 (11738088_a_at) / RFU OLFML3 (11715873_a_at) / Fold change /veh OLFML3 (11715873_a_at) / RFU LOC100653217 /// NTM (11731650_a_at) / Fold change /veh LOC100653217 /// NTM (11731650_a_at) / RFU MAPK11 (11762145_a_at) / Fold change /veh MAPK11 (11762145_a_at) / RFU FIZ1 (11724087_x_at) / Fold change /veh FIZ1 (11724087_x_at) / RFU OASL (11726364_x_at) / Fold change /veh OASL (11726364_x_at) / RFU SOX15 (11748057_x_at) / Fold change /veh SOX15 (11748057_x_at) / RFU CD79A (11719716_a_at) / Fold change /veh CD79A (11719716_a_at) / RFU HIST1H1D (11736915_at) / Fold change /veh HIST1H1D (11736915_at) / RFU CASKIN2 (11723855_a_at) / Fold change /veh CASKIN2 (11723855_a_at) / RFU LOC730098 (11760151_x_at) / Fold change /veh LOC730098 (11760151_x_at) / RFU OR4N2 (11742367_at) / Fold change /veh OR4N2 (11742367_at) / RFU PRRT2 (11749266_a_at) / Fold change /veh PRRT2 (11749266_a_at) / RFU SNX32 (11753110_a_at) / Fold change /veh SNX32 (11753110_a_at) / RFU CDHR5 (11726645_a_at) / Fold change /veh CDHR5 (11726645_a_at) / RFU RCAN1 (11760418_a_at) / Fold change /veh RCAN1 (11760418_a_at) / RFU FAM167A (11723789_a_at) / Fold change /veh FAM167A (11723789_a_at) / RFU FAM26E (11764081_at) / Fold change /veh FAM26E (11764081_at) / RFU ISYNA1 (11749810_s_at) / Fold change /veh ISYNA1 (11749810_s_at) / RFU ACY1 (11761880_at) / Fold change /veh ACY1 (11761880_at) / RFU 11764098_at / Fold change /veh 11764098_at / RFU SAMD14 (11745864_x_at) / Fold change /veh SAMD14 (11745864_x_at) / RFU NPB (11741838_a_at) / Fold change /veh NPB (11741838_a_at) / RFU TMPRSS6 (11731388_a_at) / Fold change /veh TMPRSS6 (11731388_a_at) / RFU KRTAP10-2 (11738614_at) / Fold change /veh KRTAP10-2 (11738614_at) / RFU ARHGAP8 /// PRR5-ARHGAP8 (11727945_x_at) / Fold change /veh ARHGAP8 /// PRR5-ARHGAP8 (11727945_x_at) / RFU KRTAP5-7 /// NADSYN1 (11734609_at) / Fold change /veh KRTAP5-7 /// NADSYN1 (11734609_at) / RFU RASL12 (11751679_a_at) / Fold change /veh RASL12 (11751679_a_at) / RFU CDKN2B (11736163_a_at) / Fold change /veh CDKN2B (11736163_a_at) / RFU PRF1 (11729649_at) / Fold change /veh PRF1 (11729649_at) / RFU, ZNF638 /// ZNF638-IT1 / Fold change vs veh, ZNF638 /// ZNF638-IT1 / RFU, PANK3 / Fold change vs veh, PANK3 / RFU, SH3YL1 / Fold change vs veh, SH3YL1 / RFU, ZEB2 / Fold change vs veh, ZEB2 / RFU, NRIP1 / Fold change vs veh, NRIP1 / RFU, PTTG1IP / Fold change vs veh, PTTG1IP / RFU, CAPN2 / Fold change vs veh, CAPN2 / RFU, MED14 / Fold change vs veh, MED14 / RFU, SNORA58 / Fold change vs veh, SNORA58 / RFU, C1orf63 / Fold change vs veh, C1orf63 / RFU, LRRFIP1 / Fold change vs veh, LRRFIP1 / RFU, NDUFAF7 / Fold change vs veh, NDUFAF7 / RFU, SLC12A2 / Fold change vs veh, SLC12A2 / RFU, IBTK / Fold change vs veh, IBTK / RFU, ESF1 / Fold change vs veh, ESF1 / Fold change vs veh, TMEM50B / RFU, TAOK1 / Fold change vs veh, TAOK1 / RFU, ACBD3 / Fold change vs veh, ACBD3 / RFU, TMA16 / Fold change vs veh, TMA16 / RFU, RWDD3 / Fold change vs veh, RWDD3 / RFU, BCAT1 / Fold change vs veh, BCAT1 / RFU, EDEM3 / Fold change vs veh, EDEM3 / RFU, TMEM33 / Fold change vs veh, TMEM33 / RFU, WDR75 / Fold change vs veh, WDR75 / RFU, AHCTF1 / Fold change vs veh, AHCTF1 / RFU, TFRC / Fold change vs veh, TFRC / RFU, ZDHHC17 / Fold change vs veh, ZDHHC17 / RFU, NOM1 / Fold change vs veh, NOM1 / RFU, ARL8B / Fold change vs veh, ARL8B / RFU, ZBTB11 / Fold change vs veh, ZBTB11 / RFU, TAMM41 / Fold change vs veh, TAMM41 / RFU, KIAA1704 /// LOC100996395 / Fold change vs veh, KIAA1704 /// LOC100996395 / RFU, ING1 / Fold change vs veh, ING1 / RFU, TRMT61B / Fold change vs veh, TRMT61B / RFU, FUBP3 / Fold change vs veh, FUBP3 / RFU, TP53 / Fold change vs veh, TP53 / RFU, TNKS2 / Fold change vs veh, TNKS2 / RFU, ZFP14 / Fold change vs veh, ZFP14 / RFU, ACTR2 / Fold change vs veh, ACTR2 / RFU, PPP3R1 / Fold change vs veh, PPP3R1 / RFU, PIK3R1 / Fold change vs veh, PIK3R1 / RFU, HNRNPA1 / Fold change vs veh, HNRNPA1 / RFU, RNF170 / Fold change vs veh, RNF170 / RFU, ZNF28 / Fold change vs veh, ZNF28 / RFU, RNGTT / Fold change vs veh, RNGTT / RFU, OGT / Fold change vs veh, OGT / RFU, BRD1 / Fold change vs veh, BRD1 / RFU, MARS / Fold change vs veh, MARS / RFU, ZNF655 / Fold change vs veh, ZNF655 / RFU, FAHD1 / Fold change vs veh, FAHD1 / RFU, BDP1 / Fold change vs veh, BDP1 / RFU, LRRCC1 / Fold change vs veh, LRRCC1 / RFU, ARID1A / Fold change vs veh, ARID1A / RFU, ZNF146 / Fold change vs veh, ZNF146 / RFU, ZNF330 / Fold change vs veh, ZNF330 / RFU, GPN3 / Fold change vs veh, GPN3 / RFU, C9orf123 / Fold change vs veh, C9orf123 / RFU, N4BP2L2 / Fold change vs veh, N4BP2L2 / RFU, ARFIP1 / Fold change vs veh, ARFIP1 / RFU, FAM179B / Fold change vs veh, FAM179B / RFU, BCL10 / Fold change vs veh, BCL10 / RFU, UHRF1BP1L / Fold change vs veh, UHRF1BP1L / RFU, BET1 / Fold change vs veh, BET1 / RFU, CNOT2 / Fold change vs veh, CNOT2 / RFU, ZNF268 / Fold change vs veh, ZNF268 / Fold change vs veh, ZNF507 / RFU, DGCR2 / Fold change vs veh, DGCR2 / RFU, WDSUB1 / Fold change vs veh, WDSUB1 / Fold change vs veh, HSP90B1 /// MIR3652 / RFU, ADSS / Fold change vs veh, ADSS / RFU, GK / Fold change vs veh, GK / RFU, ZNF148 / Fold change vs veh, ZNF148 / RFU, TAF9 / Fold change vs veh, TAF9 / RFU, SLC1A5 / Fold change vs veh, SLC1A5 / RFU, SLMO2 / Fold change vs veh, SLMO2 / RFU, ABCC4 / Fold change vs veh, ABCC4 / RFU, LOC101060439 /// RAP1B / Fold change vs veh, LOC101060439 /// RAP1B / RFU, RFX7 / Fold change vs veh, RFX7 / RFU, GTPBP10 / Fold change vs veh, GTPBP10 / RFU, CNEP1R1 / Fold change vs veh, CNEP1R1 / RFU, BIVM-ERCC5 /// ERCC5 / Fold change vs veh, BIVM-ERCC5 /// ERCC5 / RFU, ILF3 / Fold change vs veh, ILF3 / RFU 11762660_at / Fold change /veh 11762660_at / RFU VCAN (11757783_s_at) / Fold change /veh VCAN (11757783_s_at) / RFU DDX43 (11728927_at) / Fold change /veh DDX43 (11728927_at) / RFU KRT8 (11758188_x_at) / Fold change /veh KRT8 (11758188_x_at) / RFU NKD1 (11759106_at) / Fold change /veh NKD1 (11759106_at) / RFU SRD5A1 (11742802_a_at) / Fold change /veh SRD5A1 (11742802_a_at) / RFU TPSAB1 /// TPSB2 (11721975_s_at) / Fold change /veh TPSAB1 /// TPSB2 (11721975_s_at) / RFU GSTM3 (11746129_a_at) / Fold change /veh GSTM3 (11746129_a_at) / RFU IL23R (11737362_x_at) / Fold change /veh IL23R (11737362_x_at) / RFU TMEM51 (11727254_a_at) / Fold change /veh TMEM51 (11727254_a_at) / RFU PIWIL2 (11732686_x_at) / Fold change /veh PIWIL2 (11732686_x_at) / RFU ORM1 (11744905_x_at) / Fold change /veh ORM1 (11744905_x_at) / RFU CCDC152 (11743942_at) / Fold change /veh CCDC152 (11743942_at) / RFU ECM1 (11717891_a_at) / Fold change /veh ECM1 (11717891_a_at) / RFU IL23R (11748794_a_at) / Fold change /veh IL23R (11748794_a_at) / RFU TNFAIP8L3 (11732012_x_at) / Fold change /veh TNFAIP8L3 (11732012_x_at) / RFU MBOAT4 (11741988_at) / Fold change /veh MBOAT4 (11741988_at) / RFU 11764193_at / Fold change /veh 11764193_at / RFU TMEM53 (11763286_at) / Fold change /veh TMEM53 (11763286_at) / RFU MAGEB2 (11727129_at) / Fold change /veh MAGEB2 (11727129_at) / RFU TMEM200A (11744735_a_at) / Fold change /veh TMEM200A (11744735_a_at) / RFU CCDC152 (11751479_a_at) / Fold change /veh CCDC152 (11751479_a_at) / RFU FAM211A (11726209_a_at) / Fold change /veh FAM211A (11726209_a_at) / RFU RGS16 (11746705_a_at) / Fold change /veh RGS16 (11746705_a_at) / RFU VCAN (11755009_s_at) / Fold change /veh VCAN (11755009_s_at) / RFU RHOB (11743442_s_at) / Fold change /veh RHOB (11743442_s_at) / RFU RGS16 (11720943_a_at) / Fold change /veh RGS16 (11720943_a_at) / RFU RGS16 (11720944_at) / Fold change /veh RGS16 (11720944_at) / RFU, VPS4B / Fold change vs veh, VPS4B / RFU, CREB1 / Fold change vs veh, CREB1 / RFU, DNAJC13 / Fold change vs veh, DNAJC13 / RFU, GNAQ / Fold change vs veh, GNAQ / RFU, CDK5R1 / Fold change vs veh, CDK5R1 / RFU, ZRANB3 / Fold change vs veh, ZRANB3 / RFU, CUL4A / Fold change vs veh, CUL4A / RFU, CCNY / Fold change vs veh, CCNY / RFU, UFL1 / Fold change vs veh, UFL1 / RFU, COG3 / Fold change vs veh, COG3 / RFU, DIAPH2 / Fold change vs veh, DIAPH2 / RFU, SKA2 / Fold change vs veh, SKA2 / RFU, AFF3 / Fold change vs veh, AFF3 / RFU, LMF1 / Fold change vs veh, LMF1 / RFU, IPO11 / Fold change vs veh, IPO11 / RFU, DFFB / Fold change vs veh, DFFB / RFU, FOXP1 / Fold change vs veh, FOXP1 / RFU, CARD8 / Fold change vs veh, CARD8 / RFU, STRN3 / Fold change vs veh, STRN3 / RFU, ADK / Fold change vs veh, ADK / RFU, RASSF2 / Fold change vs veh, RASSF2 / RFU, WIPF1 / Fold change vs veh, WIPF1 / RFU, LARP1B / Fold change vs veh, LARP1B / RFU, RASA1 / Fold change vs veh, RASA1 / RFU, RB1 / Fold change vs veh, RB1 / RFU, PPFIA1 / Fold change vs veh, PPFIA1 / RFU, MAT2A / Fold change vs veh, MAT2A / RFU, CCT5 / Fold change vs veh, CCT5 / RFU, WDR92 / Fold change vs veh, WDR92 / RFU, CUX1 / Fold change vs veh, CUX1 / RFU, TTC7A / Fold change vs veh, TTC7A / RFU, TMEM135 / Fold change vs veh, TMEM135 / RFU, DEPTOR / Fold change vs veh, DEPTOR / RFU, CPM / Fold change vs veh, CPM / RFU, DNAJB6 / Fold change vs veh, DNAJB6 / RFU, CACNA2D3 / Fold change vs veh, CACNA2D3 / RFU, DTX4 / Fold change vs veh, DTX4 / RFU, TFCP2 / Fold change vs veh, TFCP2 / RFU, GMCL1 /// GMCL1P1 / Fold change vs veh, GMCL1 /// GMCL1P1 / RFU, AEBP2 / Fold change vs veh, AEBP2 / RFU, SNHG1 /// SNORD22 /// SNORD25 /// SNORD26 /// SNORD27 /// SNORD28 /// SNORD29 /// SNORD31 / Fold change vs veh, SNHG1 /// SNORD22 /// SNORD25 /// SNORD26 /// SNORD27 /// SNORD28 /// SNORD29 /// SNORD31 / Fold change (Aza/veh), C12orf56 (ProbeSet 11735607_a_at) / Fold change (ACY-1035/veh), C12orf56 (ProbeSet 11735607_a_at) / Fold change (Aza/veh), FGFR1OP (ProbeSet 11751329_s_at) / Fold change (ACY-1035/veh), FGFR1OP (ProbeSet 11751329_s_at) / Fold change (Aza/veh), VPS36 (ProbeSet 11739960_a_at) / Fold change (ACY-1035/veh), VPS36 (ProbeSet 11739960_a_at) / RFU SYPL1 (11715823_x_at) / Fold change /veh SYPL1 (11715823_x_at) / RFU IGFBP7 (11715501_s_at) / Fold change /veh IGFBP7 (11715501_s_at) / RFU REEP3 (11722064_at) / Fold change /veh REEP3 (11722064_at) / RFU IGLL1 (11728026_x_at) / Fold change /veh IGLL1 (11728026_x_at): dose or concentration left out as unconfirmed
Settings: ProbeSet 11724763_s_at; LIST D

Nc1ccc(-c2cccs2)cc1NC(=O)c1ccc2c(c1)cc(C1CC1)n2CCN1CCOCC1 [ACY-1035]
Fold change vs veh, DEPTOR: 0.84
